Experimental data published in the NIST ThermoML archive (doi:10.1021/je700260f).
± gives the expanded uncertainty stated by the source.

Settings: 293.15 K, Liquid, Vibrating tube method

FC(C(F)(F)F)C(F)(F)F [1,1,1,2,3,3,3-heptafluoropropane]
Settings	mass density [kg/m3]
11786 kPa	1474.1 ± 1.6
11826 kPa	1474.2 ± 1.6
11860 kPa	1474.3 ± 1.6
11894 kPa	1474.6 ± 1.6
11934 kPa	1474.7 ± 1.6
11967 kPa	1474.9 ± 1.6
12017 kPa	1475.1 ± 1.6
12045 kPa	1475.2 ± 1.6
12079 kPa	1475.4 ± 1.6
12119 kPa	1475.5 ± 1.6
12156 kPa	1475.8 ± 1.6
12195 kPa	1475.9 ± 1.6
12235 kPa	1476.1 ± 1.6
12280 kPa	1476.3 ± 1.6
12314 kPa	1476.4 ± 1.6
12354 kPa	1476.7 ± 1.6
12388 kPa	1476.9 ± 1.6
12422 kPa	1476.9 ± 1.6
12468 kPa	1477.1 ± 1.6
12502 kPa	1477.4 ± 1.6
12549 kPa	1477.5 ± 1.6
12591 kPa	1477.7 ± 1.6
12626 kPa	1477.9 ± 1.6
12670 kPa	1478 ± 1.6
12710 kPa	1478.2 ± 1.6
12745 kPa	1478.3 ± 1.6
12888 kPa	1479 ± 1.6
12980 kPa	1479.5 ± 1.6
13020 kPa	1479.6 ± 1.6
13072 kPa	1479.9 ± 1.6
13099 kPa	1480 ± 1.6
13131 kPa	1480.1 ± 1.6
13163 kPa	1480.3 ± 1.6
13195 kPa	1480.5 ± 1.6
13233 kPa	1480.6 ± 1.6
13264 kPa	1480.7 ± 1.6
13307 kPa	1480.8 ± 1.6
13344 kPa	1481.1 ± 1.6
13371 kPa	1481.1 ± 1.6
13408 kPa	1481.4 ± 1.6
13440 kPa	1481.4 ± 1.6
13489 kPa	1481.8 ± 1.6
13521 kPa	1481.8 ± 1.6
13564 kPa	1482 ± 1.6
13606 kPa	1482.2 ± 1.6
13649 kPa	1482.4 ± 1.6
13687 kPa	1482.5 ± 1.6
13719 kPa	1482.6 ± 1.6
13758 kPa	1482.8 ± 1.6
13797 kPa	1482.9 ± 1.6
13824 kPa	1483.2 ± 1.6
13857 kPa	1483.3 ± 1.6
13891 kPa	1483.4 ± 1.6
13930 kPa	1483.6 ± 1.6
13963 kPa	1483.7 ± 1.6
14065 kPa	1484.2 ± 1.6
14101 kPa	1484.3 ± 1.6
14128 kPa	1484.5 ± 1.6
14165 kPa	1484.6 ± 1.6
14192 kPa	1484.8 ± 1.6
14223 kPa	1484.9 ± 1.6
14249 kPa	1484.9 ± 1.6
14285 kPa	1485 ± 1.6
14316 kPa	1485.3 ± 1.6
14339 kPa	1485.3 ± 1.6
14370 kPa	1485.5 ± 1.6
14403 kPa	1485.6 ± 1.6
14431 kPa	1485.7 ± 1.6
14462 kPa	1485.9 ± 1.6
14489 kPa	1486 ± 1.6
14520 kPa	1486.2 ± 1.6
14557 kPa	1486.3 ± 1.6
14598 kPa	1486.4 ± 1.6
14635 kPa	1486.6 ± 1.6
14673 kPa	1486.7 ± 1.6
14705 kPa	1487 ± 1.6
14732 kPa	1486.9 ± 1.6
14759 kPa	1487.1 ± 1.6
14795 kPa	1487.3 ± 1.6
14831 kPa	1487.5 ± 1.6
14872 kPa	1487.5 ± 1.6
14913 kPa	1487.8 ± 1.6
14940 kPa	1487.9 ± 1.6
14973 kPa	1488 ± 1.6
15005 kPa	1488.2 ± 1.6
15038 kPa	1488.2 ± 1.6
15080 kPa	1488.6 ± 1.6
15103 kPa	1488.6 ± 1.6
15144 kPa	1488.7 ± 1.6
15181 kPa	1488.9 ± 1.6
15209 kPa	1488.8 ± 1.6
15237 kPa	1489.1 ± 1.6
15270 kPa	1489.2 ± 1.6
15298 kPa	1489.5 ± 1.6
15335 kPa	1489.4 ± 1.6
15363 kPa	1489.7 ± 1.6
15398 kPa	1489.7 ± 1.6
15425 kPa	1489.9 ± 1.6
15467 kPa	1490.1 ± 1.6
15504 kPa	1490.2 ± 1.6
15527 kPa	1490.4 ± 1.6
15569 kPa	1490.6 ± 1.6
15611 kPa	1490.8 ± 1.6
15639 kPa	1490.9 ± 1.6
15672 kPa	1490.8 ± 1.6
15719 kPa	1491.1 ± 1.6
15747 kPa	1491.3 ± 1.6
15777 kPa	1491.4 ± 1.6
15814 kPa	1491.4 ± 1.6
15837 kPa	1491.6 ± 1.6
15880 kPa	1491.9 ± 1.6
15913 kPa	1492 ± 1.6
15942 kPa	1492.2 ± 1.6
15975 kPa	1492.2 ± 1.6
16018 kPa	1492.4 ± 1.6
16046 kPa	1492.3 ± 1.6
16079 kPa	1492.7 ± 1.6
16118 kPa	1492.8 ± 1.6
16153 kPa	1493 ± 1.6
16181 kPa	1493.1 ± 1.6
16215 kPa	1493.2 ± 1.6
16244 kPa	1493.2 ± 1.6
16277 kPa	1493.6 ± 1.6
16315 kPa	1493.7 ± 1.6
16344 kPa	1493.7 ± 1.6
16377 kPa	1493.9 ± 1.6
16411 kPa	1493.9 ± 1.6
16446 kPa	1494.1 ± 1.6
16474 kPa	1494.1 ± 1.6
16503 kPa	1494.3 ± 1.6
16532 kPa	1494.4 ± 1.6
16734 kPa	1495.3 ± 1.6
16772 kPa	1495.4 ± 1.6
16831 kPa	1495.6 ± 1.6
16865 kPa	1495.9 ± 1.6
16904 kPa	1496 ± 1.6
16934 kPa	1496.2 ± 1.6
16964 kPa	1496.2 ± 1.6
16998 kPa	1496.3 ± 1.6
17038 kPa	1496.5 ± 1.6
17068 kPa	1496.6 ± 1.6
17113 kPa	1496.7 ± 1.6
17158 kPa	1497 ± 1.6
17183 kPa	1497.1 ± 1.6
17228 kPa	1497.2 ± 1.6
17263 kPa	1497.4 ± 1.6
17293 kPa	1497.5 ± 1.6
17334 kPa	1497.7 ± 1.6
17375 kPa	1497.8 ± 1.6
17405 kPa	1498 ± 1.6
17450 kPa	1498.2 ± 1.6
17485 kPa	1498.2 ± 1.6
17520 kPa	1498.5 ± 1.6
17555 kPa	1498.5 ± 1.6
17654 kPa	1498.9 ± 1.6
17694 kPa	1499.1 ± 1.6
17726 kPa	1499.2 ± 1.6
17756 kPa	1499.4 ± 1.6
17801 kPa	1499.4 ± 1.6
17831 kPa	1499.5 ± 1.6
17856 kPa	1499.6 ± 1.6
17902 kPa	1499.9 ± 1.6
17933 kPa	1499.9 ± 1.6
17969 kPa	1500.2 ± 1.6
18004 kPa	1500.4 ± 1.6
18044 kPa	1500.5 ± 1.6
18075 kPa	1500.4 ± 1.6
18124 kPa	1500.8 ± 1.6
18164 kPa	1500.9 ± 1.6
18194 kPa	1501.1 ± 1.6
18235 kPa	1501.3 ± 1.6
18276 kPa	1501.4 ± 1.6
18313 kPa	1501.5 ± 1.6
18349 kPa	1501.6 ± 1.6
18391 kPa	1501.8 ± 1.6
18428 kPa	1502 ± 1.6
18459 kPa	1502 ± 1.6
18502 kPa	1502.3 ± 1.6
18544 kPa	1502.5 ± 1.6
18574 kPa	1502.5 ± 1.6
18611 kPa	1502.7 ± 1.6
18650 kPa	1502.7 ± 1.6
18678 kPa	1502.9 ± 1.6
18720 kPa	1503.1 ± 1.6
18753 kPa	1503.1 ± 1.6
18785 kPa	1503.3 ± 1.6
18822 kPa	1503.5 ± 1.6
18859 kPa	1503.7 ± 1.6
18888 kPa	1503.6 ± 1.6
18925 kPa	1503.8 ± 1.6
18953 kPa	1503.9 ± 1.6
18981 kPa	1504.1 ± 1.6
19018 kPa	1504.2 ± 1.6
19055 kPa	1504.4 ± 1.6
19084 kPa	1504.5 ± 1.6
19116 kPa	1504.5 ± 1.6
19145 kPa	1504.6 ± 1.6
19183 kPa	1504.8 ± 1.6
19210 kPa	1505 ± 1.6
19243 kPa	1505 ± 1.6
19282 kPa	1505.2 ± 1.6
19320 kPa	1505.4 ± 1.6
19349 kPa	1505.5 ± 1.6
19392 kPa	1505.6 ± 1.6
19430 kPa	1505.9 ± 1.6
19460 kPa	1505.8 ± 1.6
